Results published in US20220257698A1, “ANGIOTENSIN TYPE 2 (AT2) RECEPTOR AGONISTS FOR USE IN THE TREATMENT OF CANCER” (LANTHIOPEP B.V., priority 2019, published 2022).

How the values were obtained:
Assay type in all cases: in vivo, cd1 nu/nu mice (human GBM cell line)
U87MG glioblastoma CDX [1] = assay: Subcutaneous U87MG glioblastoma CDX: tumor weight and time of tumor progression; settings: for tumor weight [%]: relative to vehicle = 100
Description: Effects of KcAng(1-7) were evaluated in vivo in a subcutaneous GBM xenograft model in nude mice. Insurgence of neurologic phenomena and differences in the survival rates were evaluated. Human GBM cell lines U87MG and U251MG were used. Cell lines were grown in DMEM nutrient mixture supplemented with 10% fetal bovine serum, 1% penicillin/streptomycin, and 25 mM HEPES buffer. All cell lines were cultured at 37° C. in a humidified atmosphere consisting of 5% CO2 and 95% air. Medium was changed every 2 days and the cell morphology was evaluated under microscope daily.
Six-week-old male athymic nude mice (age 5-7 weeks) were housed with free access to food and water in a temperature-controlled room. Each group is represented by 10 xenograft cd1 nu/nu mice. The mice were injected s.c. in the right distal hind limb with one million of cultured human tumor cell lines suspended in 0.15 mL of 2:1 solution of PBS/Matrigel (Matrigel BD Biosciences). Xenografts were measured every four days with a digital caliper in two perpendicular dimensions. Tumor volume was calculated according to the following formula:
Tumor volume=(tumor width)×(tumor width)×(tumor length)÷2
At the end of experiments, mice were euthanized and tumors removed. Weight loss or other signs of distress such as hunched posture were checked during and after treatments.
Efficacy of treatment was evaluated by: (1) the size of tumors (vehicle control and treated), (2) the relative weight at the end of experiment, and (3) the indirect evaluation of angiogenesis by determining hemoglobin levels.
In vivo tumor response to treatment was evaluated using the following parameters: (i) Complete response (CR): defined as the disappearance of a measurable lesion, (ii) Partial response (PR): defined as a reduction of greater than 50% of the sum of the products of the cross-sectional diameters of the measurable lesion, (iii) Stable disease (SD): defined as a reduction of less than 50% or an increase of less than 25% in the sum of the products of the cross-sectional diameters of the measurable lesions, (iv) Tumor progression (TP): defined as an increase of greater than […] in the sum of the products of the cross-sectional diameters of the measured lesion, (v) Time to progression (TTP) defining the tumor growth delay. Tumor progression was calculated through the analysis of bioluminescence imaging (BLI) photon counts and when possible through the analyses of tumor volumes calculated by magnetic resonance imaging (MRI), (vi) Disease free survival (DFS) is the time elapsed between the time point at which no luciferase activity is detectable anymore and the death of the animal, (vii) Overall survival (OS) is the time elapsed between tumor inoculation and death of the animal. […] Luciferase transfected cells were used for bioluminescence evaluations.
Data are presented as mean and standard error of the mean (SEM) or standard deviation (SD). Statistical comparisons between control and treated groups were established by carrying out the Kruskal-Wallis test (a nonparametric one-way analysis of variance) or the Mann-Whitney test (in the case of two groups). The level of significance was corrected by multiplying the P value by the number of comparisons performed (n) according to […] correction. TP, TTP and DFS were analyzed by Kaplan-Meier curves and Gehan's generalized Wilcoxon test. All statistical analyses were undertaken using SPSS 10.0.
Mice with U87MG cell CDX were randomized at day 0. KcAng(1-7) was injected daily subcutaneously (0.2 μg/kg) starting at day 0 until the (ethical) endpoint maximally at day 42. TMZ was administered at 16 mg/kg during 5 consecutive days, that is from […]. Volumetric evaluation of the tumor was performed every 4 days and tumor weight was measured at the end of the experiment.
Synergism was determined using the methods described in Clarke et al. Breast Cancer Research and Treatment 46:255-278 (1997).
Mice with U87MG cell CDX were randomized at day 0. […]

U87MG glioblastoma CDX [2] = assay: Tumor hemoglobin level (indirect angiogenesis) in U87MG CDX; settings: KcAng(1-7) 1 μg/kg/d, Losartan 20 mg/kg/d, or both
Description: Efficacy of treatment was evaluated by: […] Mice with U87MG cell CDX were randomized at day 0. KcAng(1-7) was injected subcutaneously (1 μg/kg) on a daily basis. Losartan was administered intraperitoneal at 20 mg/kg/day. […] In brief, tumors were homogenized in double-distilled water. Eighty microliters of homogenates were mixed with 1 mL of Drabkin's solution and incubated for 15 min at room temperature. After centrifugation at 400×g for 5 min, the supernatants were subjected to absorbance measurement at 540 nm. The absorption, which is proportional to hemoglobin concentration, was divided by tumor weight.

U251MG glioblastoma CDX [3] = assay: Subcutaneous U251MG glioblastoma CDX: time of tumor progression; settings: KcAng(1-7) 1 μg/kg/d, Losartan 20 mg/kg/d, or both
Description: Effects of KcAng(1-7) were evaluated in vivo in a subcutaneous GBM xenograft model in nude mice. Insurgence of neurologic phenomena and differences in the survival rates were evaluated. Human GBM cell lines U87MG and U251MG were used. Cell lines were grown in DMEM nutrient mixture supplemented with 10% fetal bovine serum, 1% penicillin/streptomycin, and 25 mM HEPES buffer. All cell lines were cultured at 37° C. in a humidified atmosphere consisting of 5% CO2 and 95% air. Medium was changed every 2 days and the cell morphology was evaluated under microscope daily. Six-week-old male athymic nude mice (age 5-7 weeks) were housed with free access to food and water in a temperature-controlled room. Each group is represented by 10 xenograft cd1 nu/nu mice. […] Xenografts were measured every four days with a digital caliper in two perpendicular dimensions. Tumor volume was calculated according to the following formula: In vivo tumor response to treatment was evaluated using the following parameters: […] […] TP, TTP and DFS were analyzed by Kaplan-Meier curves and Gehan's generalized Wilcoxon test. […]

U251MG glioblastoma CDX [4] = assay: Tumor hemoglobin level (indirect angiogenesis) in U251MG CDX; settings: KcAng(1-7) 1 μg/kg/d, Losartan 20 mg/kg/d, or both
Description: Efficacy of treatment was evaluated by: […] In brief, tumors were homogenized in double-distilled water. Eighty microliters of homogenates were mixed with 1 mL of Drabkin's solution and incubated for 15 min at room temperature. After centrifugation at 400×g for 5 min, the supernatants were subjected to absorbance measurement at 540 nm. The absorption, which is proportional to hemoglobin concentration, was divided by tumor weight. Effect of KcAng(1-7) and Losartan against heterotopic U251MG cell culture-based xenografts (CDX) in mice. Animals were treated either with vehicle, treated with 20 mg/kg/d Losartan, treated with 1 μ[…](1-7) or treated with a combination of KcAng(1-7) and with Losartan.

| Compound | Time of tumor progression - TTP, mean (days ± SD) (U87MG glioblastoma CDX [1]; KcAng(1-7) 0.2 μg/kg/d s.c., TMZ 16 mg/kg for 5 days, or both) | Tumor weight, mean (mg ± SD) (U87MG glioblastoma CDX [1]; end of experiment, KcAng(1-7) 0.2 μg/kg/d s.c., TMZ 16 mg/kg for 5 days, or both) | tumor weight [%] (U87MG glioblastoma CDX [1]; KcAng(1-7) 0.2 μg/kg/d, TMZ 16 mg/kg, or both) | Tumor hemoglobin level, mean (± SEM) (U87MG glioblastoma CDX [2]) | Time of tumor progression - TTP, mean (days ± SEM) (U251MG glioblastoma CDX [3]) | Time of tumor progression - TTP, mean (days ± SEM) (U87MG glioblastoma CDX [1]; KcAng(1-7) 1 μg/kg/d s.c., Losartan 20 mg/kg/d i.p., or both) | Tumor weight, mean (mg ± SEM) (U87MG glioblastoma CDX [1]; KcAng(1-7) 1 μg/kg/d s.c., Losartan 20 mg/kg/day i.p., or both) | tumor weight [%] (U87MG glioblastoma CDX [1]; KcAng(1-7) 1 μg/kg/d, Losartan 20 mg/kg/d, or both) | Tumor hemoglobin level, mean (± SEM) (U251MG glioblastoma CDX [4]) |
| --- | --- | --- | --- | --- | --- | --- | --- | --- | --- |
| Cn1nnc2c(C(N)=O)ncn2c1=O [Temozolomide, temozolomide, reference compound] | 17.00 ± 0.54 days | 445 ± 28 mg | 42.8% | – | – | – | – | – | – |
| CCCCc1nc(Cl)c(CO)n1Cc1ccc(-c2ccccc2-c2nn[nH]n2)cc1 [Losartan, reference compound] | – | – | – | 15.2 ± 1.0 mg hemoglobin/g of tissue | 10.6 ± 0.6 days | 13.0 ± 0.6 days | 830 ± 57 mg | 79.8% | 32.1 ± 3.1 mg Hb/g of tissue |
